Measurements published in patent publication US9107411B2, “Indolecarboxamides and benzimidazolecarboxamides as insecticides and acaricides” (BAYER INTELLECTUAL PROPERTY GMBH, priority 2011, dated 2015).

Experiments:
[1] = tested on: Tetranychus urticae; assay: Tetranychus test, OP-resistant (TETRUR spray treatment); assay type: in vivo; details: bean leaf discs, after 6 days
Summary of the method: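 Bean leaf discs infested with all stages of OP-resistant T. urticae sprayed with compound formulated in acetone/DMF plus alkylaryl polyglycol ether emulsifier, diluted in water. Efficacy (% mites killed) scored after 6 days.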

[2] = tested on: Ctenocephalides felis; assay: Ctenocephalides felis oral (CTECFE); assay type: in vivo; details: application rate 100 ppm in citrated cattle blood; after 2 days
Summary of the method: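 Readout is percent mortality after 2 days (0–100%) in roughly 20 unfed adult fleas. The fleas had imbibed citrated cattle blood dosed with compound through Parafilm, with the compound diluted from a DMSO concentrate.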

[3] = logP (HPLC-MS); assay type: physicochemical; details: HPLC, reversed-phase column (C18), 43° C.
[4] = tested on: Lucilia cuprina larvae; assay: Lucilia cuprina test (LUCICU); assay type: in vivo; details: application rate 100 ppm; treated horse meat; after 2 days
Summary of the method: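 Mortality scored as percent of larvae killed 2 days after exposure. Horse meat was treated with the compound, formulated from DMSO stock diluted with water to the test concentration, and populated with roughly 20 larvae.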

[5] = tested on: Phaedon cochleariae; assay: Phaedon test (PHAECO spray treatment); assay type: in vivo; details: Chinese cabbage leaf discs, after 7 days
Summary of the method: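 Larval mortality was assessed 7 days after Phaedon cochleariae larvae were placed on dried, spray-treated Brassica pekinensis leaf discs. The formulation was an acetone/dimethylformamide concentrate with alkylaryl polyglycol ether emulsifier, diluted in emulsifier-containing water. Results are given as % kill, from 0 (no larvae dead) to 100 (all dead).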

[6] = tested on: adult engorged Boophilus microplus females of the SP-resistant Parkhurst strain; assay: Boophilus microplus test (DIP); assay type: in vivo; details: application rate 100 ppm, after 7 days
Experimental: Boophilus microplus Test (DIP)
Test animals: adult engorged Boophilus microplus females of the SP-resistant Parkhurst strain
Solvent: dimethyl sulphoxide
10 mg of active ingredient are dissolved in 0.5 ml of dimethyl sulphoxide. For the purpose of preparing a suitable formulation, the active ingredient solution is diluted with water to the concentration desired in each case.
This active ingredient formulation is pipetted into tubes. 8-10 ticks are transferred into a further tube with holes. The tube is immersed into the active ingredient formulation, and all ticks are completely wetted. After the liquid has run out, the ticks are transferred onto filter discs in plastic dishes and stored in a climate-controlled room.
The activity is assessed after 7 days by laying of fertile eggs. Eggs whose fertility is not outwardly visible are stored in glass tubes in a climate-controlled cabinet until the larvae hatch. An efficacy of 100% means that none of the ticks has laid any fertile eggs.

[7] = tested on: Spodoptera frugiperda; assay: Spodoptera frugiperda test (SPODFR spray treatment); assay type: in vivo; details: maize leaf discs, after 7 days
Summary of the method: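 Mortality read-out at 7 days, given as % efficacy, where 100% means every caterpillar dead and 0% none. Caterpillars were placed on dried maize leaf discs that had been sprayed with test formulation. That formulation was an acetone/dimethylformamide concentrate diluted in emulsifier-containing water.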

[8] = tested on: Boophilus microplus; assay: Boophilus microplus test (BOOPMI injection); assay type: in vivo; details: application rate 20 μg/animal; injected into the abdomen; after 7 days
Summary of the method: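 Read-out after 7 days is % efficacy, judged by fertile egg laying, with 100% meaning no fertile eggs from any tick. Compound was given by abdominal injection as a DMSO solution diluted to the desired concentration. Treated ticks were held in dishes in a climate-controlled room.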

[9] = tested on: adult Musca domestica; assay: Musca domestica test (MUSCDO); assay type: in vivo; details: application rate 100 ppm; treated sponge; after 2 days
Summary of the method: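 After 2 days' exposure to a treated sponge, adult house fly mortality was recorded as kill %. Formulation: active ingredient in dimethyl sulphoxide, then water dilution to the test concentration.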

[10] = tested on: Myzus persicae; assay: Myzus test (MYZUPE spray treatment); assay type: in vivo; details: Chinese cabbage leaf discs, after 6 days
Experimental: Myzus Test (MYZUPE Spray Treatment) Solvent: 78 parts by weight of acetone • • 1.5 parts by weight of dimethylformamide Emulsifier: 0.5 part by weight of alkylaryl polyglycol ether To produce an appropriate active ingredient formulation, 1 part by weight of active ingredient is mixed with the stated amounts of solvent and emulsifier, and the concentrate is diluted with emulsifier-containing water to the desired concentration. Leaf discs of Chinese cabbage (Brassica pekinensis) infested by all stages of the green peach aphid (Myzus persicae) are sprayed with an active ingredient formulation of the desired concentration. After 6 days, the efficacy in % is determined. 100% means that all of the aphids have been killed; 0% means that none of the aphids have been killed.

[11] = tested on: Amblyomma hebraeum; assay: Amblyomma hebaraeum test (AMBYHE); assay type: in vivo; details: application rate 100 ppm; tick nymphs immersed one minute; after 42 days
Experimental: Amblyomma hebaraeum Test (AMBYHE) Solvent: dimethyl sulphoxide To prepare an appropriate active ingredient formulation, 10 mg of active ingredient are mixed with 0.5 ml of dimethyl sulphoxide and the concentrate is diluted with water to the desired concentration. Tick nymphs (Amblyomma hebraeum) are placed into perforated plastic beakers and immersed in the desired concentration for one minute. The ticks are transferred on filter paper into a Petri dish and stored in a climate-controlled cabinet. After 42 days, the kill in % is determined 100% means that all of the ticks have been killed; 0% means that none of the ticks have been killed.

[12] = acidic range pH 2.7, acetonitrile (0.1% formic acid)/water gradient, calibration with unbranched alkan-2-ones

Compound	efficacy in % ([1]; application rate 100 g/ha) [%]	efficacy (kill in %) [2] [%]	log p [3, 12]	efficacy (kill in %) [4] [%]	efficacy in % ([5]; application rate 100 g/ha) [%]	efficacy (laying of fertile eggs) [6] [%]	efficacy in % ([7]; application rate 100 g/ha) [%]	efficacy (laying of fertile eggs) [8] [%]	efficacy (kill in %) [9] [%]	efficacy in % ([1]; application rate 500 g/ha) [%]	efficacy in % ([5]; application rate 500 g/ha) [%]	efficacy in % ([7]; application rate 500 g/ha) [%]	efficacy in % ([10]; application rate 100 g/ha) [%]	efficacy in % ([10]; application rate 500 g/ha) [%]	log p ([3]; acidic range pH 2.7, EEC directive 79/831 Annex V.A8, two values = both regioisomers (G = N))	efficacy (kill in %) [11] [%]
CCn1c(C(=O)NC(c2ccc(F)c(Cl)c2)C(F)(F)F)cc2cc(C(=O)NC3CC3)c(Cl)cc21 (stereo not shown) [Compound 18]	90	100	3.82	100	100	80	100	100	100	–	–	–	–	–	–	–
CCn1c(C(=O)NC(c2ccc(F)c(C(F)(F)F)c2)C(F)(F)F)nc2cc(C(=O)NC3CC3)c(Cl)cc21 (stereo not shown) [Compound 38]	–	100	3.71	100	–	–	–	100	100	100	100	100	100	90	–	–
CCn1c(C(=O)NC(c2ccc(F)c(Br)c2)C(F)(F)F)cc2cc(C(=O)NC3CC3)c(Cl)cc21 (stereo not shown) [Compound 12]	100	100	3.82	100	100	–	100	100	100	–	–	–	90	–	–	–
CCn1c(C(=O)NC(c2ccc(F)c(Cl)c2)C(F)(F)F)cc2cc(C(=O)NC3CC3)c(C)cc21 (stereo not shown) [Compound 192]	100	100	3.65	100	100	–	100	100	100	–	–	–	90	–	–	–
CCc1cc2c(cc1C(=O)NC1(C#N)CC1)cc(C(=O)NC(c1cccc(C(F)(F)F)c1)C(F)(F)F)n2CC (stereo not shown) [Compound 282]	100	100	–	100	100	–	100	100	90	–	–	–	80	–	3.98	–
C#CCn1c(C(=O)NC(c2ccc(F)c(Br)c2)C(F)(F)F)cc2cc(C(=O)NC3CC3)c(Cl)cc21 (stereo not shown) [Compound 14]	–	100	3.52	100	–	–	–	100	100	100	100	100	–	–	–	100
CCn1c(C(=O)NC(c2ccc(F)c(Cl)c2)C(F)(F)F)nc2cc(C(=O)NC3CC3)c(Cl)cc21 (stereo not shown) [Compound 37]	–	100	3.59	100	–	–	–	100	100	100	100	100	–	90	–	–
